Where a SMILES comes first, the peptide text is derived from it. Bridges are numbered along the chain shown (N, C = ends). [ ]: non-standard residue; d: D form. The star is where a group is joined. hPhe(3-Cl-4-CF3) = N[C@@H](CCc1ccc(C(F)(F)F)c(Cl)c1)C(=O)O; NPrPhe(4-CF3) = CCCN[C@@H](Cc1ccc(C(F)(F)F)cc1)C(=O)O; NMeGly(cPent) = CN[C@H](C(=O)O)C1CCCC1; cisHyp = O=C(O)[C@@H]1C[C@H](O)CN1; NMeD = CN[C@@H](CC(=O)O)C(=O)O; NMeL = CN[C@@H](CC(C)C)C(=O)O; Morpholide = C1CN(*)CCO1; NAllylGly = C=CCNCC(=O)O; Ac5c = NC1(C(=O)O)CCCC1; Sar = CNCC(=O)O
Legend:
[1] = target: GDP-bound NRAS wild-type protein (Homo sapiens, UniProt P01111); assay: Binding to NRAS by surface plasmon resonance (SPR), Single Cycle Kinetics
[2] = target: GDP-bound HRAS wild-type protein (Homo sapiens, UniProt P01112); assay: Binding to HRAS by surface plasmon resonance (SPR), Single Cycle Kinetics
[3] = SPR, GDP-bound NRAS wild-type vs GDP-bound KRAS wild-type
[4] = SPR, GDP-bound HRAS wild-type vs GDP-bound KRAS wild-type

GDP-bound HRAS wild-type protein, sequence (P01112 whole entry): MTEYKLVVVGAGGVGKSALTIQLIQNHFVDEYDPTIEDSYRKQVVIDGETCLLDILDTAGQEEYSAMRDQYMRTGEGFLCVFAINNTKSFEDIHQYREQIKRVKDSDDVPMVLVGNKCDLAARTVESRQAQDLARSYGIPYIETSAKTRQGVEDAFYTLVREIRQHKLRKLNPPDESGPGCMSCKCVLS
GDP-bound NRAS wild-type protein, sequence (P01111 whole entry): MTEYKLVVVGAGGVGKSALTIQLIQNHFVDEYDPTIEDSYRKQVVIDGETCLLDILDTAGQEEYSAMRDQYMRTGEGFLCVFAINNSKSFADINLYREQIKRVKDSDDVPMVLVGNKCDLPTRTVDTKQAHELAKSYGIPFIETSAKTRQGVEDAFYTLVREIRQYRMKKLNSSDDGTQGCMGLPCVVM

Compound: CCCN1C(=O)CN(C)C(=O)CN(C)C(=O)[C@H]([C@@H](C)CC)NC(=O)[C@H](CC(C)C)N(C)C(=O)C[C@@H](C(=O)N2CCOCC2)N(C)C(=O)[C@H](C2CCCC2)N(C)C(=O)C2(CCCC2)NC(=O)[C@@H]2C[C@H](O)CN2C(=O)[C@H](CCc2ccc(C(F)(F)F)c(Cl)c2)NC(=O)CN(C)C(=O)[C@@H]1Cc1ccc(C(F)(F)F)cc1 [PP0240] ([NMeL]I[Sar][Sar][NPrPhe(4-CF3)][Sar][hPhe(3-Cl-4-CF3)][cisHyp][Ac5c][NMeGly(cPent)][NMeD]-Morpholide; lactam N-11)
- NRAS/KRAS (ratio of KD for GDP-bound NRAS wild-type to KD for KRAS) ([1]; KD ratio NRAS/KRAS, SPR): B (a compound having 3 or more and less than 10 is denoted as B)
- HRAS/KRAS (ratio of KD for GDP-bound HRAS wild-type to KD for KRAS) ([2]; KD ratio HRAS/KRAS, SPR): C (A compound having a KD ratio of 0.1 or more and less than 3 is denoted as C)

Compound: CC[C@H](C)[C@@H]1NC(=O)[C@H](C)N(C)C(=O)C[C@@H](C(=O)N2CCOCC2)N(C)C(=O)[C@H](C2CCCC2)N(C)C(=O)C2(CCC2)NC(=O)[C@@H]2CC(F)(F)CN2C(=O)[C@H](CCc2cc(F)c(C(F)(F)F)c(F)c2)NC(=O)CN(C)C(=O)[C@H](Cc2ccc(C(F)(F)F)cc2)N2CCCC[C@@H](C2=O)N(C)C(=O)CN(C)C1=O [PP0582]
- NRAS/KRAS (ratio of KD value with respect to GDP-bound NRAS wild-type protein to KD value with respect to KRAS) ([1]; KD ratio NRAS/KRAS, SPR): C (A compound having a KD ratio of 0.1 or more and less than 3 is denoted as C)
- HRAS/KRAS (ratio of KD value with respect to GDP-bound HRAS wild-type protein to KD value with respect to KRAS) ([2]; KD ratio HRAS/KRAS, SPR): B (a compound having 3 or more and less than 10 is denoted as B)

Compound: CCCOC[C@H]1C(=O)N[C@@H]([C@@H](C)CC)C(=O)N(C)CC(=O)N(C)[C@H]2C/C=C\CCN(C2=O)[C@@H](Cc2ccc(C(F)(F)F)cc2)C(=O)N(C)CC(=O)N[C@@H](CCc2cc(F)c(C(F)(F)F)c(F)c2)C(=O)N2C[C@@H](C)C[C@H]2C(=O)NC2(CC(C)(C)C2)C(=O)N(C)[C@@H](C2CCCC2)C(=O)N(C)[C@H](C(=O)N(C)CC)CC(=O)N1C [PP2043]
- NRAS/KRAS (ratio of KD value with respect to NRAS to KD value with respect to KRAS) [1, 3]: A (a compound having 10 or more and less than 20 is denoted as A)
- HRAS/KRAS (ratio of KD value with respect to HRAS to KD value with respect to KRAS) [2, 4]: A (a compound having 10 or more and less than 20 is denoted as A)

Compound: CCCOC[C@H]1C(=O)N[C@@H]([C@@H](C)CC)C(=O)N(C)CC(=O)N(C)[C@H]2C/C=C\CCN(C2=O)[C@@H](Cc2ccc(C(F)(F)F)cc2)C(=O)N(C)CC(=O)N[C@@H](CCc2cc(F)c(C(F)(F)F)c(F)c2)C(=O)N2C[C@@H](C)C[C@H]2C(=O)NC2(CCC2)C(=O)N(C)[C@@H](C2CCCC2)C(=O)N(C)[C@H](C(=O)N(C)CCC)CC(=O)N1C [PP2008]
- NRAS/KRAS (ratio of KD value for NRAS to KD value for KRAS) ([1]; KD ratio, GDP-bound NRAS wild-type vs GDP-bound KRAS wild-type, SPR): A (a compound having 10 or more and less than 20 is denoted as A)
- HRAS/KRAS (ratio of KD value for HRAS to KD value for KRAS) ([2]; KD ratio, GDP-bound HRAS wild-type vs GDP-bound KRAS wild-type, SPR): A (a compound having 10 or more and less than 20 is denoted as A)

Compound: C=CCN1CC(=O)N(C)CC(=O)N(CCC)[C@@H](Cc2ccc(C(F)(F)F)cc2)C(=O)N(C)CC(=O)N[C@@H](CCc2ccc(C(F)(F)F)c(Cl)c2)C(=O)N2CCC[C@H]2C(=O)NC2(CCCC2)C(=O)N(C)[C@@H](C2CCCC2)C(=O)N(C)[C@H](C(=O)N2CCOCC2)CC(=O)N(C)[C@@H](CC(C)C)C(=O)N[C@@H]([C@@H](C)CC)C1=O [PP0749] ([NMeL]I[NAllylGly][Sar][NPrPhe(4-CF3)][Sar][hPhe(3-Cl-4-CF3)]P[Ac5c][NMeGly(cPent)][NMeD]-Morpholide; lactam N-11)
- NRAS/KRAS (ratio of KD value with respect to GDP-bound NRAS wild-type protein to KD value with respect to KRAS) ([1]; KD ratio NRAS/KRAS, SPR): B (a compound having 3 or more and less than 10 is denoted as B)
- HRAS/KRAS (ratio of KD value with respect to GDP-bound HRAS wild-type protein to KD value with respect to KRAS) ([2]; KD ratio HRAS/KRAS, SPR): C (A compound having a KD ratio of 0.1 or more and less than 3 is denoted as C)

Compound: CCOC[C@H]1C(=O)N[C@@H]([C@@H](C)CC)C(=O)N(C)CC(=O)N(C)[C@H]2C/C=C\CCN(C2=O)[C@@H](Cc2ccc(C(F)(F)F)cc2)C(=O)N(C)CC(=O)N[C@@H](CCc2cc(F)c(C(F)(F)F)c(F)c2)C(=O)N2C[C@H](OCC)C[C@H]2C(=O)NC2(CC(C)(C)C2)C(=O)N(C)[C@@H](CC2CCC2)C(=O)N(C)[C@H](C(=O)N(C)C)CC(=O)N1C [PP2763]
- NRAS/KRAS (ratio of KD value with respect to GDP-bound NRAS wild-type protein to KD value with respect to KRAS) ([1]; KD ratio NRAS/KRAS, class symbols): A (a compound having 10 or more and less than 20 is denoted as A)
- HRAS/KRAS (ratio of KD value with respect to GDP-bound HRAS wild-type protein to KD value with respect to KRAS) ([2]; KD ratio HRAS/KRAS, class symbols): A (a compound having 10 or more and less than 20 is denoted as A)

Compound: CCC[C@H]1C(=O)N[C@@H]([C@@H](C)CC)C(=O)N2CCC[C@H]2C(=O)N(C)[C@H]2C/C=C\CCN(C2=O)[C@@H](CC2CCCCC2)C(=O)N(C)CC(=O)N[C@@H](CCc2ccc(C(F)(F)F)c(OC)c2)C(=O)N2C[C@H](OCC)C[C@H]2C(=O)N(C)C2(CCC2)C(=O)N(C)[C@@H](C(CC)CC)C(=O)N(C)[C@H](C(=O)N(C)C)CC(=O)N1C [PP2341]
- NRAS/KRAS (ratio of KD value with respect to NRAS to KD value with respect to KRAS) [1, 3]: A (a compound having 10 or more and less than 20 is denoted as A)
- HRAS/KRAS (ratio of KD value with respect to HRAS to KD value with respect to KRAS) [2, 4]: A (a compound having 10 or more and less than 20 is denoted as A)
